According to patent US20210205323A1, “MAINTENANCE THERAPY OF A PARP INHIBITOR IN TREATING GASTRIC CANCER” (BEIGENE, LTD., priority 2018, published 2021):

Experiments:
gastric cancer = settings: olaparib added to second-line chemotherapy with paclitaxel; phase III; cited from earlier work
[1] = test system: BBGA087 patient derived gastric cancer xenograft; experiment: Pamiparib as maintenance therapy after oxaliplatin + 5-FU treatment in the xenograft model; type: in vivo, female nod-scid mice
Protocol: (§1) Female nod-scid mice were subcutaneously implanted with BBGA087 patient derived gastric tumor tissue fragments (3×3×3 mm3) in the right flank. After inoculation, tumor volume and body weight were measured twice weekly and calculated using the formula: V=0.5×(a×b2) where a and b were the long and short diameters of the tumor, respectively. When the average tumor size reached 200 mm3, animals were randomly assigned into 3 groups. Animals were treated with vehicle (0.5% methylcellulose, 0.5% MC), pamiparib, oxaliplatin plus 5-Fluorouracil (5-FU), respectively. BGB290 was administered at 6 mg/kg by oral gavage (p.o.) twice daily (BID), oxaliplatin was administered by intraperitoneal (i.p.) injection once per week (QW) for three weeks, and 5-FU was administered by intraperitoneal (i.p.) injection once daily with 5 days per week.
After 28 days, mice treated with oxaliplatin and 5-FU were reallocated into 2 groups according to the tumor volume, and were treated with either placebo (0.5% MC) or pamiparib as maintenance therapy.
(§2) Data is presented as mean tumor volume+standard error of the mean (SEM). Tumor growth inhibition (TGI) is calculated using the following formula: […]

PBMCs = experiment: Clinical pharmacodynamic target modulation in PBMCs; type: in vivo; settings: in the clinic; recommended Phase 2 dose 60 mg BID
[2] = test system: BBGA087 patient derived gastric cancer xenograft; experiment: Efficacy of pamiparib and oxaliplatin + 5-FU on tumor growth in a patient derived gastric cancer xenograft; type: in vivo, female nod-scid mice; settings: BBGA087 model, pamiparib 6 mg/kg p.o. BID
Protocol: as §1, §2

Compound	overall survival (OS) compared with paclitaxel and placebo (gastric cancer)	Mean Tumor Volume on Day 32 ([1]; maintenance therapy 6 mg/kg BID after 28 days of oxaliplatin + 5-FU, Day 32) [mm3]	TGI (%) on Day 32 ([1]; maintenance therapy 6 mg/kg BID after 28 days of oxaliplatin + 5-FU, versus placebo (0.5% MC), Day 32) [%]	tumor relapse on maintenance therapy ([1]; pamiparib 6 mg/kg BID as maintenance versus placebo (0.5% MC) after oxaliplatin + 5-FU)	dose level achieving maximum pharmacodynamic target modulation in PBMCs (PBMCs) [mg BID]	Mean Tumor Volume on Day 28 ([2]; oxaliplatin 5 mg/kg + 5-FU 15 mg/kg i.p.) [mm3]	TGI (%) on Day 28 ([2]; oxaliplatin 5 mg/kg i.p. QW*3 plus 5-FU 15 mg/kg i.p. QD*5/week*3) [%]
O=C(c1cc(Cc2n[nH]c(=O)c3ccccc23)ccc1F)N1CCN(C(=O)C2CC2)CC1 [olaparib]	failed to improve overall survival						
C[C@]12CCCN1CC1=NNC(=O)c3cc(F)cc4[nH]c2c1c34 [pamiparib]		222	96	tumor relapse was delayed	10	921	42
